The source made the active and inactive calls. The calls are words filed in the database; no cut-off is given here.
Columns and labels:
PC-12 [1] = experiment: Neuroprotective activity against H2O2 induced rat PC12 cells assessed as increase in cell viability at 25 uM measured after 24 hrs by MTT assay relative to control; type: functional
[2] = AUC (0 to t) in Balb/C mouse brain at 30 mg/kg, IG measured upto 8 hrs by LC-MS analysis; type: ADME, organism-based; details: in vivo, po
[3] = AUC (0 to t) in Balb/C mouse plasma at 30 mg/kg, IG measured upto 8 hrs by LC-MS analysis; type: ADME, organism-based; details: po
[4] = Metal chelating activity assessed as compound-Fe2+ complex formation by measuring bathochromic shift at 301 to 335nm in the presence of FeSO4 by UV-Visible spectrophotometric analysis
[5] = target: Amyloid-beta precursor protein (Homo sapiens) (UniProt P05067); experiment: Inhibition of amyloid beta (1 to 42) (unknown origin) fibrillation assessed as reduction in Cu2+ induced thick fibrils at 25 uM measured after 24 hrs by TEM analysis
Mus musculus [6] = experiment: Neuroprotective activity in Sodium nitrite induced cognition impairement in C57BL/6 mouse model assessed as decrease in MAD activity at 5.0 mg/kg, IG administered daily for 7 days; type: functional, organism-based; details: time 7.0 day
[7] = Tmax in Balb/C mouse brain at 30 mg/kg, IG measured upto 8 hrs by LC-MS analysis; type: ADME, organism-based; details: po
Mus musculus [8] = experiment: Neuroprotective activity in Sodium nitrite induced cognition impairement in C57BL/6 mouse model assessed as increase in SOD activity at 9.9 mg/kg, IG administered daily for 7 days; type: functional; details: time 7 day
BV-2 [9] = experiment: Antineuroinflammatory activity in LPS-induced mouse BV-2 cells assessed as inhibition of ROS production at 10 uM preincubated for 30 mins followed by LPS stimulation and measured after 8 hrs by DCFH-DA staining based analysis; type: functional, cell-based; details: time 8.5 hrs
BV-2 [10] = experiment: Antineuroinflammatory activity in LPS-induced mouse BV-2 cells assessed as inhibition of TNF-alpha release at 10 uM preincubated for 30 mins followed by LPS stimulation and measured after 24 hrs relative to control; type: functional; design: scale not given: the % may be the effect or the level left; details: time 24.5 hrs
HT-22 [11] = experiment: Neuroprotective activity against amyloid beta (1 to 42) induced cell injury in mouse HT-22 cells assessed as cell viability at 50 uM incubated for 24 hrs by MTT assay; type: functional, cell-based
PC-12 [12] = experiment: Neuroprotective activity against H2O2 induced rat PC12 cells assessed as increase in cell viability at 1 uM measured after 24 hrs by MTT assay relative to control; type: functional
[13] = Half life in Balb/C mouse brain at 30 mg/kg, IG measured upto 8 hrs by LC-MS analysis; type: ADME, organism-based; details: po
[14] = Metal chelating activity assessed as compound-Cu2+ complex formation by measuring bathochromic shift at 301 to 345nm in the presence of CuCl2 by UV-Visible spectrophotometric analysis
Mus musculus [15] = experiment: Neuroprotective activity against Abeta42 induced cognition impairement in AD mouse model assessed as improvement in latency time at 1.1 to 9.9 mg/kg, IG administered daily for 7 days by passive avoidance test; type: functional, organism-based; details: dose 1.1-9.9 mg/kg, time 7.0 day
[16] = Antioxidant activity assessed as inhibition of Cu2+-induced ROS production by measuring decrease in fluorescence intensity in presence of Cu2+ and ascorbate; type: functional
Mus musculus [17] = experiment: Neuroprotective activity in Sodium nitrite induced cognition impairement in C57BL/6 mouse model assessed as increase in SOD activity at 5.0 mg/kg, IG administered daily for 7 days; type: functional, organism-based; details: time 7.0 day
[18] = Tmax in Balb/C mouse plasma at 30 mg/kg, IG measured upto 8 hrs by LC-MS analysis; type: ADME, organism-based; details: po
BV-2 [19] = experiment: Cytotoxicity against LPS-induced mouse BV-2 cells assessed as cell viability at 0.5 to 10 uM incubated for 24 hrs by MTT assay; type: toxicity, cell-based; details: bv-2, 24 h, dose 0.5-10 µM
BV-2 [20] = experiment: Antineuroinflammatory activity in LPS-induced mouse BV-2 cells assessed as inhibition of NO release at 10 uM preincubated for 30 mins followed by LPS stimulation and measured after 24 hrs relative to control; type: functional; design: scale not given: the % may be the effect or the level left; details: time 24.5 hrs
BV-2 [21] = experiment: Antineuroinflammatory activity in LPS-induced mouse BV-2 cells assessed as inhibition of ROS production preincubated for 30 mins followed by LPS stimulation and measured after 8 hrs by DCFH-DA staining based analysis; type: functional, cell-based; details: dose 2.5-10 µM, time 8.5 hrs
Mus musculus [22] = experiment: Neuroprotective activity in Sodium nitrite induced cognition impairement in C57BL/6 mouse model assessed as improvement in step-down latency time at 1.1 to 9.9 mg/kg, IG administered daily for 7 days; type: functional, organism-based; details: dose 1.1-9.9 mg/kg, time 7.0 day
BV-2 [23] = experiment: Antineuroinflammatory activity in LPS-induced mouse BV-2 cells assessed as inhibition of IL-1 beta release at 0.5 uM preincubated for 30 mins followed by LPS stimulation and measured after 24 hrs relative to control; type: functional; design: scale not given: the % may be the effect or the level left; details: time 24.5 hrs
BV-2 [24] = experiment: Antineuroinflammatory activity in LPS-induced mouse BV-2 cells assessed as inhibition of NO release at 2.5 uM preincubated for 30 mins followed by LPS stimulation and measured after 24 hrs relative to control; type: functional; design: scale not given: the % may be the effect or the level left; details: time 24.5 hrs
BV-2 [25] = experiment: Cytotoxicity against mouse BV-2 cells at upto 10 uM measured after 24 hrs by MTT assay; type: toxicity, cell-based; details: bv-2, 24 h
[26] = Antioxidant activity assessed as trolox equivalent of ORAC radical scavenging activity by ORAC-FL assay relative to trolox; type: functional
HT-22 [27] = experiment: Neuroprotective activity against amyloid beta (1 to 42)-induced injury in mouse HT-22 cells assessed as inhibition of ROS accumulation measured after 24 hrs by DCFH-DA staining based fluorescence microscopy analysis; type: functional, cell-based; details: dose 2.5-10 µM
[28] = Cmax in Balb/C mouse plasma at 30 mg/kg, IG measured upto 8 hrs by LC-MS analysis; type: ADME, organism-based; details: po
HT-22 [29] = experiment: Neuroprotective activity against amyloid beta (1 to 42)-induced cell injury in mouse HT-22 cells assessed as reversal of reduction in cell numbers at 2.5 to 10 uM measured after 24 hrs by MTT assay; type: functional, cell-based; details: dose 2.5-10 µM

Sequence of Amyloid-beta precursor protein (Homo sapiens) (P05067 whole entry): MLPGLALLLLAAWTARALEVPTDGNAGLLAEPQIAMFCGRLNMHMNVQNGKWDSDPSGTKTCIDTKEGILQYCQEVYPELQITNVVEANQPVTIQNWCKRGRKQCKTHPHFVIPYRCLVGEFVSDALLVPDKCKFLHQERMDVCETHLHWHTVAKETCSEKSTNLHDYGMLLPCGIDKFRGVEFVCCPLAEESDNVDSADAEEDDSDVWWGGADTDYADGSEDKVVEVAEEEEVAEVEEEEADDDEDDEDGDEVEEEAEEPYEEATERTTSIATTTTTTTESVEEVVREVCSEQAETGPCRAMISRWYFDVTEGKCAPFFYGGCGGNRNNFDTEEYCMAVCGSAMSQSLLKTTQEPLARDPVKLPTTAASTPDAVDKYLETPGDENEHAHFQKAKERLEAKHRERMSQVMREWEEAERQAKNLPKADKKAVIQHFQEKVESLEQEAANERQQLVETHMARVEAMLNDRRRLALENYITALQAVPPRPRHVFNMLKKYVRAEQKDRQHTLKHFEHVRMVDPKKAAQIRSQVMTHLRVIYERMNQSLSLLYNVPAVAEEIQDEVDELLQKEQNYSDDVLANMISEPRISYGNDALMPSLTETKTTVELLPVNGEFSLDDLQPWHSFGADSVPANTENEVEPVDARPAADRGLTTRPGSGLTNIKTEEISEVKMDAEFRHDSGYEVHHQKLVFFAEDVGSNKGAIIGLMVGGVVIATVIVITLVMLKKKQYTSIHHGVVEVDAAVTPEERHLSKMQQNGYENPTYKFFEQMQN

## CCCCCC1OC(=O)c2c1cc(OC)c(O)c2O (centres undefined)
PC-12 [1]
  Activity: 83.9%
[2]
  AUCt: 681.3 ng·h/g
[3]
  AUC(0-t) at 8 h: 852 ng·h/mL
[4]
  Activity: Active
[5]
  inhibition: Active
Mus musculus [6]
  Activity: inactive
[7]
  Tmax: 30 min
Mus musculus [8]
  Activity: 193.1 U/mg
BV-2 [9]
  Activity: Active
BV-2 [10]
  Activity: 75.8%
HT-22 [11]
  Activity: Active
PC-12 [12]
  Activity: 68.1%
[13]
  half-life: 58.2 min
[14]
  Activity: Active
Mus musculus [15]
  Activity: Active
[16]
  Activity: Active
Mus musculus [17]
  Activity: inactive
[18]
  Tmax: 15 min
BV-2 [19]
  Activity: Non-Toxic
BV-2 [20]
  Activity: 77.3%
BV-2 [21]
  Activity: Dose-Dependent Effect
Mus musculus [22]
  Activity: Active
BV-2 [23]
  Activity: 36.6%
BV-2 [24]
  Activity: 47%
BV-2 [25]
  Activity: Non-Toxic
[26]
  Activity: 2.2
HT-22 [27]
  Activity: Dose-Dependent Effect
[28]
  Cmax: 879 ng/mL
HT-22 [29]
  Activity: Active

From ChEMBL document CHEMBL5505960, “Synthesis and evaluation of butylphthalide-scutellarein hybrids as multifunctional agents for the treatment of Alzheimer's disease” (Eur J Med Chem, 2024)
